# Measurements taken from paper PMC12058896, “Potent antimicrobial activity of hydrogel loaded with the antimicrobial peptide, D-Bac8c^2,5 Leu, against monospecies and polymicrobial biofilms of Staphylococcus aureus and Pseudomonas aeruginosa” (Frontiers in Microbiology, 2025).
# Marks after values point to notes of the source that are not given here. Non-standard residues stand in square brackets, D forms with d. Residues, ends and D or L forms follow the SMILES beside them.
# Columns and labels:
# [1] = test system: HUVEC; test: MTT cell viability; format: cell-based, human; conditions: 24 h, 37°C, 5% CO2, average of three independent experiments
# [2] = test system: BH48; test: microbe, parasite or virus in culture; format: cell-based, Staphylococcus aureus; conditions: 18 h
# Experimental: (§1) Strains used in the study were isolates of methicillin-resistant Staphylococcus aureus (MRSA); USA300 LAC, BH1CC ([O’Neill et al., 2007]), methicillin-sensitive S. aureus (MSSA); SH1000 ([Horsburgh et al., 2002]) and BH48 ([O’Neill et al., 2007]); and Pseudomonas aeruginosa PAO1 (ATCC […]). Clinical isolates were obtained from a previous collection of isolates of infected wounds. Bacteria were grown aerobically at 37°C with shaking at 200 rpm in Brain Heart Infusion (BHI, Oxoid, Ireland). Selective media, Mannitol Salt Agar (SLS, Ireland) and MacConkey agar (SLS, Ireland), for re-isolation of bacterial strains from mixed species biofilms were used. Bolton Broth (Fannin, Ireland) supplemented with 50% bovine heparin plasma (TebuBio, UK), and 5% laked horse blood (Sigma-Aldrich, Ireland) was used to mimic in vivo conditions for static antibiofilm testing. For dynamic biofilm growth Simulated Wound Fluid (SWF) prepared as described previously with slight modification, 3% v/v fetal bovine serum in maximum recovery diluent (Merck, Ireland) was used ([Barbour et al., 2016]).
# (§2) Minimum inhibitory concentration (MIC) was determined aerobically using the broth microdilution assay as recommended by the Clinical and Laboratory Standards Institute (CLSI) ([CLSI, 2018]). Briefly, 2-fold serial dilutions of the antimicrobial peptides of interest and conventional antibiotics were prepared in Mueller-Hinton broth (MHB) (Merck, Ireland) in a 96-well round bottom polypropylene plate (ThermoFisher, Ireland). Diluted bacterial suspensions in sterile PBS (Sigma, Ireland) were added to each well resulting in a final cell density of approximately 10^5 colony forming units (CFU)/mL. Microplates were incubated statically for 18 h at 37°C. In each assay, inoculated medium without antimicrobials and uninoculated medium served as growth and sterility controls, respectively. Conventional antibiotics, gentamicin (Merck, Ireland) and mupirocin (SLS, UK), were tested as comparator antimicrobials. The MIC value was defined as the lowest antimicrobial concentration showing no visible growth relative to positive (no antimicrobial agent) and negative controls (BHI alone). Experiments were conducted in triplicate, and independent replicates were performed three times to yield n = 3.
# [3] = test system: SH1000; test: microbe, parasite or virus in culture; format: cell-based, Staphylococcus aureus; conditions: SH1000, 18 h
# Experimental: as §1, §2
# [4] = test system: BH1CC; test: microbe, parasite or virus in culture; format: cell-based, Staphylococcus aureus; conditions: 18 h
# Experimental: as §1, §2
# [5] = test system: USA300; test: microbe, parasite or virus in culture; format: cell-based, Staphylococcus aureus; conditions: USA300, 18 h
# Experimental: as §1, §2
# [6] = test system: HaCaT; test: MTT cell viability; format: cell-based, human; conditions: 24 h, 37°C, 5% CO2, average of three independent experiments
# [7] = test system: IL-8; conditions: ref Zapotoczna et al. (2017); cited from earlier work
# Description: (§3) Similarly, here we verified that D-Bac8c^2,5 Leu has low toxicity to human monocytes THP-1.
# [8] = test system: TNFα; conditions: ref Zapotoczna et al. (2017); cited from earlier work
# Description: as §3
# [9] = test system: PAO1 + SH1000 polymicrobial biofilm; test: Static polymicrobial biofilm, CFU enumeration; format: cell-based, S. aureus + P. aeruginosa; conditions: 6 h, 37°C
# Experimental: (§4) Biofilms were formed under static conditions using flat 96-well polystyrene plates as described previously with few modifications ([Nasreddine et al., 2018]). Briefly, overnight cultures in BHI were washed and diluted 1:200 in fresh Bolton Broth media supplemented with 50% bovine heparin plasma, and 5% laked horse blood. From this suspension, 100 μL was used to inoculate the microtiter plate wells prior to static incubation at 37°C for 24 h, 3 days and 5 days. The media in each well was changed daily during prolonged incubation periods (3 and 5 days). Following the initial incubation period and washing, 100 μL of D-Bac8c^2,5 Leu, was added to each test well at 37°C for 6 h at a concentration range of 64–256 μg/mL. After incubation with D-Bac8c^2,5 Leu, biofilms were washed twice with PBS and biofilm assessment was performed. For the polymicrobial biofilms, a bacterial solution ratio 1:1 of S. aureus and P. aeruginosa at 1 × 10^5 CFU/mL each was used to inoculate the wells. In each assay, inoculated medium without antimicrobials and uninoculated medium served as growth and sterility controls, respectively. Experiments were conducted in triplicate, and independent replicates were performed three times to yield n = 3.
# (§5) After treatment, formed biofilms were washed twice with sterile PBS and then suspended in TrypLE solution (Gibco, Dublin, Ireland). A serial of 10-fold dilutions of the suspended biofilms were performed in 96-well flat bottom microplates. Then 10 μL of each dilution was plated in triplicate on MH agar using the drop method. For polymicrobial biofilms, dilutions were plated on Mannitol Salt Agar and MacConkey Agar. After overnight incubation at 37°C, CFU were counted and results were expressed as log10CFU/mL.
# [10] = test system: PAO1 + USA300 polymicrobial biofilm; test: Static polymicrobial biofilm, CFU enumeration; format: cell-based, S. aureus + P. aeruginosa; conditions: 24 h biofilm PAO1 + USA300, 256 μg/mL, 6 h, 37°C
# Experimental: as §4, §5
# [11] = test system: THP-1; format: cell-based, human; conditions: 24 h
# Experimental: Sigma-Aldrich, Ireland). […] At 90% confluence, cells were centrifuged and diluted to a 1:5 ratio with complete RPMI. THP-1 cells were seeded in a 96 well plate at a density of 1 × 10^5 cells/mL with increasing concentrations of D-Bac8c^2,5 Leu. Cells were incubated for 24 h at 37°C with 5% CO2, 95% humidity. […] The absorbance was measured at 595 nm in a microplate spectrophotometer. Cell viability was calculated as a percentage of a control treated with PBS. Two technical replicates were performed each day on three independent days.
compound,measurement,setting,value
"CC(C)C[C@@H](NC(=O)[C@H](N)CCCNC(=N)N)C(=O)N[C@H](Cc1c[nH]c2ccccc12)C(=O)N[C@@H](C(=O)N[C@H](CC(C)C)C(=O)N[C@H](Cc1c[nH]c2ccccc12)C(=O)N[C@H](CCCNC(=N)N)C(=O)N[C@H](CCCNC(=N)N)C(N)=O)C(C)C [D-Bac8c^2,5 Leu] (H-[dR][dL][dW][dV][dL][dW][dR][dR]-NH2; N-terminus assumed)","IC50 (50% cell viability), MTT",[1],134 µg/mL
same,MIC,[2],8 µg/mL
same,MIC,[3],8 µg/mL
same,MIC,[4],8 µg/mL
same,MIC,[5],8 µg/mL
same,"IC50 (50% cell viability), MTT",[6],426.7 µg/mL
same,biofilm-induced increase in IL-8 levels,[7],inhibited
same,effect on TNFα,[8],without affecting
same,Log change vs. untreated control,"[9]; 24 h biofilm PAO1 + SH1000, 64 μg/mL, left column of pair under S. aureus + P. aeruginosa",−0.6 Log
same,Log change vs. untreated control,"[9]; 24 h biofilm PAO1 + SH1000, 64 μg/mL, right column of pair under S. aureus + P. aeruginosa",−0.64 Log
same,Log change vs. untreated control,"[9]; 24 h biofilm PAO1 + SH1000, 128 μg/mL, left column of pair",−1.65* Log
same,Log change vs. untreated control,"[9]; 24 h biofilm PAO1 + SH1000, 128 μg/mL, right column of pair",−1.61* Log
same,Log change vs. untreated control,"[9]; 24 h biofilm PAO1 + SH1000, 256 μg/mL",−3.78*** Log
same,Log change vs. untreated control,[10],−2.44*** Log
same,"IC50 (50% cell viability), MTT",[11],331.7 µg/mL
